Results reported in US20120053189A1, “BTK INHIBITORS FOR THE TREATMENT OF IMMUNE MEDIATED CONDITIONS” (Pharmacyclics, Inc., priority 2010, published 2012).
Entries after “also recorded” stand apart in the source; their conditions may differ. Where two headings read alike, the source gives them in different places. Values belong to the compound of their own block, whether it stands above or below them.

How the values were obtained:
JAK2 = JAK2 (Homo sapiens, UniProt O60674); test: kinase selectivity, JAK2; assay type: biochemical
CD20+ B cells [1] = test: B cell viability; assay type: cell-based, human; settings: concentrations below 10 μM
Method: (§1) CD20+ B and CD3+ T cells were purified by negative selection (RosetteSep, >90% purity) from Buffy coat PBMC and viably frozen in 10% DMSO. Cells were thawed at 37° C. and maintained in growth media (RPMI media containing 10% FCS). B cells were stimulated with goat anti-human IgM F(ab′)2 (10 ug/ml, Invitrogen) and T cells were stimulated with anti-CD3/CD28 coated beads (Dynabeads) at a 1:1 bead/cell ratio. Cells were stained with PE-CD69 (BD) and analyzed by flow cytometry, gating on viable lymphocytes. […] For washout experiments, cells were rinsed 3× in 10 volumes of growth media, a protocol that was confirmed to completely wash away inhibition of BCR signaling by a reversible Btk inhibitor.

JAK1 = JAK1 (Homo sapiens, UniProt P23458); test: kinase selectivity, JAK1; assay type: biochemical
[2] = interspecies scaling of clearance and estimation of efficacious human daily dosage; settings: FIG. 7
Method: There is an excellent scaling of clearance (dose/AUC) within mice, rats and dogs, and therefore exposure to dose projection in humans is likely precise. Based on interspecies scaling of clearance, the human BW normalized CL/F was determined to be about 2.53 (FIG. 7).

Abl = Abl (Homo sapiens, UniProt P00519); test: kinase selectivity, Abl; assay type: biochemical
JAK3 = target: T1, JAK3 (Homo sapiens, UniProt P52333); test: kinase selectivity, JAK3; assay type: biochemical
T1 sequence (P52333 1-1124): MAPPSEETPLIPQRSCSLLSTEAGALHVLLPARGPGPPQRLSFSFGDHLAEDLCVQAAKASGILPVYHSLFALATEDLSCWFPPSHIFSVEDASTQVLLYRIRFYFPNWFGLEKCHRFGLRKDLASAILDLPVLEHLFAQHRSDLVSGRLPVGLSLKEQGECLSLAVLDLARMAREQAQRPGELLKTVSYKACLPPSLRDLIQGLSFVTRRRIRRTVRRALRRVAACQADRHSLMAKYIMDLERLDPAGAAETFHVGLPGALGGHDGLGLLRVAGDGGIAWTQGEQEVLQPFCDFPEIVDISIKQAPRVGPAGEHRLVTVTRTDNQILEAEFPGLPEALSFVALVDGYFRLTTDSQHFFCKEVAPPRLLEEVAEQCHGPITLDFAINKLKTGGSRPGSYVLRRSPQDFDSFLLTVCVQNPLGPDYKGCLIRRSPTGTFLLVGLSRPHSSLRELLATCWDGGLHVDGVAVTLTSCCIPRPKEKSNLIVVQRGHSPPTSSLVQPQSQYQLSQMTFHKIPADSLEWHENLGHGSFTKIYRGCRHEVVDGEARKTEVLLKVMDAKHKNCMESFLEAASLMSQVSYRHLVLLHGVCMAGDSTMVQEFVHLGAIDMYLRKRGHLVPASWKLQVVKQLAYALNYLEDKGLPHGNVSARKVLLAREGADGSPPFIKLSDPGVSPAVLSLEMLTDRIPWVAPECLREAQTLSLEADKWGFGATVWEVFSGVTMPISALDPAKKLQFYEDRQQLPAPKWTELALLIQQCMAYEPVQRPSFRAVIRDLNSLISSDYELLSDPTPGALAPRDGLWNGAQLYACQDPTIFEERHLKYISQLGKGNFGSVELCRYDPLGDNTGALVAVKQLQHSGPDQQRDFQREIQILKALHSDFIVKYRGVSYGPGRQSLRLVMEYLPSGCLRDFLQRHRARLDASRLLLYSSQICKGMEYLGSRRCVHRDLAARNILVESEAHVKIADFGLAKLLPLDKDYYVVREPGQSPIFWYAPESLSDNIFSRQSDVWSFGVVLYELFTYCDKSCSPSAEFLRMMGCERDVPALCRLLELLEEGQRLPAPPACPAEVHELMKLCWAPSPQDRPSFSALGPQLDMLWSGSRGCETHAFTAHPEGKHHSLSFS

CD3+ T cells = test: T cell viability; assay type: cell-based, human; settings: concentrations below 10 μM
Method: as §1

in vitro = settings: human, liver microsomes
[3] = hepatic extraction ratio in rats; assay type: in vivo; settings: oral, 1-(AUC systemic÷AUC portal)
Method: The analyses were performed using nominal sample times and a noncompartmental method with uniform weighting. Pharmacokinetic parameter estimates included terminal half-life and area under the concentration-time curve (AUC). Extraction ratios were calculated as 1-(AUC systemic÷AUC portal).

human monocytes = test: human monocyte cytokine release assay (IgG stimulation); assay type: cell-based; settings: for release of IL-1β from human monocytes following FcγR stimulation with IgG: FIG. 2
Method: Human monocytes were isolated from Ficoll-gradient purified PBMC from healthy human volunteers using negative selection with EasySep (StemCells) magnetic beads. CD14+monocytes were then stimulated with IFN-gamma for 6 days, and then 2×10^6 cells were plated onto 10 μg/ml of human IgG (R&D Biosystems) coated onto Immulon 4 ELISA plates. […] Supernatants were collected from the plates and cytokines levels were determined with ELISA kits.

Btk = Btk (Homo sapiens, UniProt Q06187); test: Btk biochemical assays
[4] = test system: human whole blood basophils; test: whole blood basophil assay, CD63 after anti-IgE stimulation; assay type: cell-based; settings: for EC50: human whole blood basophils, read-out: EC50 of inhibition of anti-IgE mediated upregulation of CD63
Method: Fresh whole blood was collected on the day of the experiment from a healthy volunteer. Whole blood is stimulated with 10 ng/mL of rhIL-3 (Invitrogen) and […] of anti-IgE (Beckman Coulter) in Basophil Stimulation Buffer (20 mM HEPES pH 7.4, 125 mM NaCl, 5 mM KCl, 2.5 mM CaCl2, 1 mM MgCl2, 0.5% Glucose, 0.1% BSA) at 37° C. for 15 min. The reaction was terminated by the addition of EDTA. The stimulated whole blood was then stained with a fluorescent three-antibody cocktail (FITC-Anti-CD63/PerCP-Anti-HLA-DR/PE-Anti-CD123) (BD Biosciences) at room temperature in the dark for 15 min. Following staining, blood was treated with 1×FACS Lysing solution (BD Biosciences) for 15 minutes to lyse the RBC. The lysed RBC supernatant was removed following centrifugation for […]. The cell pellet was resuspended and fixed in 0.5% paraformaldehyde in PBS. The percentage of basophil degranulation was determined by the % of CD63 cells that were CD123 positive and HLA-DR negative.

RAW264.7 cells = test: IgG mediated phagocytosis of Zymosan particles; assay type: cell-based, murine; settings: IgG opsonized Zymosan particles, RAW cells
Method: Prelabeled Zymosan particles were first opsonized with mouse IgG at 37 C for 30 min, and then centrifuged down and washed several times with PBS. The Zymosan particles are the resuspended in PBS.

in vivo = settings: CDIGS, rat
CD20+ B cells [5] = test: human B cell activation following BCR stimulation by anti-IgM (CD69); assay type: cell-based; settings: read-out: EC50 of inhibition of human B cell activation
Method: as §1

[6] = test system: murine collagen-induced arthritis (CIA) model; test: murine collagen-induced arthritis (CIA) model; assay type: in vivo, mice; settings: for inflammatory synovitis, pannus formation, synovial fluid cytokines, cartilage damage and bone erosion: preventive and established murine CIA models
Method: Male mice 7 weeks of age were purchased from Harlan Laboratories, and acclimated for a minimum of 3 days. Mice were immunized on Day 0 with 150 μg of bovine collagen II (Chondrex Inc) in CFA (Sigma), and boosted with 100 μg of bovine collagen II in IFA on day 21. Fore and hind paws of mice were scored daily with a clinical scoring system using the following criteria:
0=normal 1=1 hind or fore paw joint affected • with minimal diffuse swelling and erythema (redness of the skin due to congestion of the capillaries)
2=2 hind or fore paw joints affected • with minimal diffuse swelling and erythema (redness of the skin due to congestion of the capillaries)
3=3 hind or fore paw joints affected • with minimal diffuse swelling and erythema (redness of the skin due to congestion of the capillaries)
4=minimum of 4 joints affected • marked diffuse swelling and erythema (redness of the skin due to congestion of the capillaries)
5=minimum entire paw, • unable to flex (Severe diffuse swelling and erythema redness of the skin due to congestion of the capillaries
Mice were enrolled randomly into treatment groups when a minimum mean paw score of 1.0 was established. The treatments started on the day of enrollment and continued for 12 days. Clinical scores were monitored daily for each animal in the treatment groups.

[7] = test system: murine collagen-antibody-induced arthritis model (CAIA model); test: murine collagen-antibody-induced arthritis model (CAIA model); assay type: in vivo, DBA/1 mice; settings: for dose that completely suppressed the development of arthritis: mouse, in vivo
Method: DBA/1 mice were injected intravenously with 2 mg of Arthrogen-CIA 5 mouse anti-bovine collagen (Chondrex) on day 0. Three days later, these mice were injected IP with 50 μg of LPS.
Mice were monitored for clinical symptoms daily with the criteria below.
0=normal 1=1 hind or fore paw joint affected 2=2 hind or fore paw joints affected 3=3 hind or fore paw joints affected 4=moderate (erythema and moderate swelling, or =4 digit joints affected) 5=severe (diffuse erythema and severe swelling entire paw, unable to flex digits)

EGFR = EGFR (Homo sapiens, UniProt P00533); test: kinase selectivity, EGFR; assay type: biochemical
VEGFR2 = VEGFR2 (Homo sapiens, UniProt P35968); test: kinase selectivity, VEGFR2; assay type: biochemical
VEGFR2, sequence (P35968 20-1356, species assumed): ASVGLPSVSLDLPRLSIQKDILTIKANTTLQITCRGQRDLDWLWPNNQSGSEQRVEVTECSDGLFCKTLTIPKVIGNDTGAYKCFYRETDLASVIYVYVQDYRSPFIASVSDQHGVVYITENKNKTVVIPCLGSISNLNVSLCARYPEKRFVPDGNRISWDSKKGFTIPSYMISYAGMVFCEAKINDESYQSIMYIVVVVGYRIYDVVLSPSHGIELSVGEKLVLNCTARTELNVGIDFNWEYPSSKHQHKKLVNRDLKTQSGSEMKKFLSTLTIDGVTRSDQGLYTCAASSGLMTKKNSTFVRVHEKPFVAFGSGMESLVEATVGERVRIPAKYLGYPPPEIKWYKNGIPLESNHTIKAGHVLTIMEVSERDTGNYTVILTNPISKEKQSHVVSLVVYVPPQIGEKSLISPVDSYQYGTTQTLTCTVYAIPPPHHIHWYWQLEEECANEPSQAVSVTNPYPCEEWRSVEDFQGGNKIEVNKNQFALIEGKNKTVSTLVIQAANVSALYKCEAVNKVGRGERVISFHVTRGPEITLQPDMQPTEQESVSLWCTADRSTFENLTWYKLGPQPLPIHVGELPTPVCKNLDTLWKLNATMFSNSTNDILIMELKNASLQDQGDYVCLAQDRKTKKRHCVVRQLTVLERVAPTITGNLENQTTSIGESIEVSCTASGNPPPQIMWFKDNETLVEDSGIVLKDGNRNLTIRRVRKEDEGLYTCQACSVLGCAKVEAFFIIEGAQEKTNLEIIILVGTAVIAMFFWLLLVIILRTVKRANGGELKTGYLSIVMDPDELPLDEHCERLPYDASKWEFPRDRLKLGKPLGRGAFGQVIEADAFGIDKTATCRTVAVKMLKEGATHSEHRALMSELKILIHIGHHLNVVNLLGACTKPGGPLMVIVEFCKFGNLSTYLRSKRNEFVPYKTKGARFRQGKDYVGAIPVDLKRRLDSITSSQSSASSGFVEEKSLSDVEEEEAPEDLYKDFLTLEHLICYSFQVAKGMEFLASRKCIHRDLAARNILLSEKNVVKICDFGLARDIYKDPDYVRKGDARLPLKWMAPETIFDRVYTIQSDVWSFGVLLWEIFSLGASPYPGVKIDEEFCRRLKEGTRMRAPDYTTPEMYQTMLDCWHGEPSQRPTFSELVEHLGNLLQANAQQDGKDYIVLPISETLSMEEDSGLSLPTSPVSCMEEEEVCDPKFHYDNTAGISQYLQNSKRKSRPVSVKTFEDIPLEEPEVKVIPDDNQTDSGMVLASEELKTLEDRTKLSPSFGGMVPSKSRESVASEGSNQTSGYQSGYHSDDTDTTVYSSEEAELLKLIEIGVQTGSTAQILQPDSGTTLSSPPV

Btk, sequence (Q06187 whole entry): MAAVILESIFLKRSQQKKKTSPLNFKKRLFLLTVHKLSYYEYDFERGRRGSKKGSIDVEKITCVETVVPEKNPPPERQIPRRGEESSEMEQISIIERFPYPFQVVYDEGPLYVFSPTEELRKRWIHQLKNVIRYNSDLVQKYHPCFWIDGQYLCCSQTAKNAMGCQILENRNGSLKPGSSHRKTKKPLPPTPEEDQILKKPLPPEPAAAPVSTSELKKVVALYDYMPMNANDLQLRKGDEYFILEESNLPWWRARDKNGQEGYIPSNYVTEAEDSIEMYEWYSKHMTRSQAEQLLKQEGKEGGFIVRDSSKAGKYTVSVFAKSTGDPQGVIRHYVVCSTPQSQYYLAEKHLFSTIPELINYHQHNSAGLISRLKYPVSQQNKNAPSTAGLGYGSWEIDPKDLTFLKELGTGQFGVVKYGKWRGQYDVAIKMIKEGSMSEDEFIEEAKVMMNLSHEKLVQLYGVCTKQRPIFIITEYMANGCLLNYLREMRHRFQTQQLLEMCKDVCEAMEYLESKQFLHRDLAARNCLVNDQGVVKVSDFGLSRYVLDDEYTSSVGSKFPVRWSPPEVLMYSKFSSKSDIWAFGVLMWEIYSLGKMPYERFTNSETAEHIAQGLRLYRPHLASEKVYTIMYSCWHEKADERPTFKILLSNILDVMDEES
Abl, sequence (P00519 whole entry, species assumed): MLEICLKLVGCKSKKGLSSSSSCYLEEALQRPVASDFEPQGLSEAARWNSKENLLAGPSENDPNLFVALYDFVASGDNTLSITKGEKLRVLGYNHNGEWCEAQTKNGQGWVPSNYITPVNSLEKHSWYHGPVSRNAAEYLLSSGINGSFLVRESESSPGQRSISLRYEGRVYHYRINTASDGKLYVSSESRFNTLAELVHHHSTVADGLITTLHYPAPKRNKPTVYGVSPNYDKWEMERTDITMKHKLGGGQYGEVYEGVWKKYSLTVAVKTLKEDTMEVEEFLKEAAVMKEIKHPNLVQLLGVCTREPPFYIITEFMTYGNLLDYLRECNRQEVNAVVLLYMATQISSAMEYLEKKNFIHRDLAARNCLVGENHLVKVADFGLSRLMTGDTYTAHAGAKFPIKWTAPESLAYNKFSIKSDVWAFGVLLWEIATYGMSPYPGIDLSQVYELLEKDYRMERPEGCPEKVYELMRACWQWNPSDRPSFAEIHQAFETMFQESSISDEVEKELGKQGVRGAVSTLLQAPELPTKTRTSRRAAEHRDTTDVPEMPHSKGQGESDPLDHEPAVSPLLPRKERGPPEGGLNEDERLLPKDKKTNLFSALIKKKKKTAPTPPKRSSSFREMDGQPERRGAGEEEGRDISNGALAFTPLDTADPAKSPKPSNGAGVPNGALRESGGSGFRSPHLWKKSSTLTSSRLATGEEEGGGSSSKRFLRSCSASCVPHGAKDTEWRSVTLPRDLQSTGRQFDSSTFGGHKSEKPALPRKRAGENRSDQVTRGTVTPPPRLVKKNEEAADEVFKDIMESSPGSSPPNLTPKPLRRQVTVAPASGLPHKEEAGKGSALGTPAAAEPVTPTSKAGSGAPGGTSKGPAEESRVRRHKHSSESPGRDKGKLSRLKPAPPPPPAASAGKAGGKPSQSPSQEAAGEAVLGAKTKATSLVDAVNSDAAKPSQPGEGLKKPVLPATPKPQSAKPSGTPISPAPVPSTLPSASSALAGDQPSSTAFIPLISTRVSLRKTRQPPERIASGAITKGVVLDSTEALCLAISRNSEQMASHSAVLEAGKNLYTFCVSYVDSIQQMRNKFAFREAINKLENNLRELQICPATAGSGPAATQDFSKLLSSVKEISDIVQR
EGFR, sequence (P00533 25-1210, species assumed): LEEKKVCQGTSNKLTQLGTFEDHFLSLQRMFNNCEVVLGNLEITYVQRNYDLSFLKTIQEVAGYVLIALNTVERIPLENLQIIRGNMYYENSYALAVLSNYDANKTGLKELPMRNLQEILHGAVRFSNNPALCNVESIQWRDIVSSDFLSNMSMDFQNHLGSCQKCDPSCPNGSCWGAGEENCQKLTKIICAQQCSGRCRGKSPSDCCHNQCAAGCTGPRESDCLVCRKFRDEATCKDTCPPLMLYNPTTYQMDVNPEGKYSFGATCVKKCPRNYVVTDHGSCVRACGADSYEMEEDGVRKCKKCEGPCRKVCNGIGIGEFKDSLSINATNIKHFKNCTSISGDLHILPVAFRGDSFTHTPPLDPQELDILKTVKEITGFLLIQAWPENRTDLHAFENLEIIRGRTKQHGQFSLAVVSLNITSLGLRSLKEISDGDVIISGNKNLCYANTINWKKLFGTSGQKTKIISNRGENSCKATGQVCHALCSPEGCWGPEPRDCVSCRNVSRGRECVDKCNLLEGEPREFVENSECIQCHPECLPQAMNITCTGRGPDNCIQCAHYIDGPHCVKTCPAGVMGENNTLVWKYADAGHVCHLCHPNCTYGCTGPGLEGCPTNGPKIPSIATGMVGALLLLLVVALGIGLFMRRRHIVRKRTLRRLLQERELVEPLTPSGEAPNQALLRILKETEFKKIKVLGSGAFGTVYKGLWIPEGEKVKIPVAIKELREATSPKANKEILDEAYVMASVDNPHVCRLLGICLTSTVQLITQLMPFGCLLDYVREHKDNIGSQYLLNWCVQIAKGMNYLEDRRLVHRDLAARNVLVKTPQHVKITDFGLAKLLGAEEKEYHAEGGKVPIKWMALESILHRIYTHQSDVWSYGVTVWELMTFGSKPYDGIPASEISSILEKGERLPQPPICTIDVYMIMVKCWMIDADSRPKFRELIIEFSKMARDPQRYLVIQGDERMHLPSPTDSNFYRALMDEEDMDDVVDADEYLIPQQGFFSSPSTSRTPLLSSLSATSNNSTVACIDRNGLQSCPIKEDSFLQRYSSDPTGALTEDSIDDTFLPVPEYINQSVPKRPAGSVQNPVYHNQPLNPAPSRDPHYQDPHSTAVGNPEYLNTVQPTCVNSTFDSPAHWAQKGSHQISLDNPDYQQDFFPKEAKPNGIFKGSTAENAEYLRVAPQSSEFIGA

inhibition of JAK2 (JAK2): no significant inhibition
inhibition of JAK1 (JAK1): no significant inhibition
inhibition of Abl (Abl): no significant inhibition
inhibition of JAK3 (JAK3): no significant inhibition
half-life (in vitro): 19.2 min
hepatic extraction ratio [3]: 0.289
IC50 (Btk): 1 to 2 nM
selectivity as inhibitor of Btk (Btk; compared with Compound 2 or dasatinib): more selective inhibitor of Btk
EC50 ([4]; listed as (E)-1-4R)-3-(4-amino-3-(4-phenoxyphenyl)-1H-pyrazolo[3,4-d]pyrimidin-1-yl)pyrrol): ~92 nM
bioavailability (in vivo; in vivo): 24.7%
EC50 (CD20+ B cells [5]): 2 nM
EC50 of inhibition of overt manifestations of arthritis (clinical arthritic symptoms) ([6]; mice, CIA): 0.61 mg/kg/day
inhibition of EGFR (EGFR): no significant inhibition
inhibition of VEGFR2 (VEGFR2): no significant inhibition
Structure (SMILES): CN(C)C/C=C/C(=O)N1CC[C@@H](n2nc(-c3ccc(Oc4ccccc4)cc3)c3c(N)ncnc32)C1 [Compound 1]
B cell viability (CD20+ B cells [1]): did not decrease
allometric scaling of CL/F vs. Body Weight in multiple species [2]: linear
T cell viability (CD3+ T cells): did not decrease
concentration inhibiting cytokine release from human monocytes (human monocytes): 20 to 100 nM
release of IL-1β from human monocytes following FcγR stimulation with IgG (human monocytes; listed as (E)-1-(R)-3-(4-amino-3-(4-phenoxyphenyl)-1H-pyrazolo[3,4-d]pyrimidin-1-yl)pyrro): suppressed the release of IL-1b; also recorded: monocyte release inhibition of IL-1β
basophil activation following anti-IgE stimulation ([4]; FIG. 1): basophil activation inhibition
concentration up to which IgG-mediated phagocytosis was not inhibited (RAW264.7 cells): > 10,000 nM
time after drug administration at which reversal of clinical arthritis was observed ([6]; 1.6 and 3.2 mg/kg/day): 1 days
clinical arthritic symptoms ([6]; 1.6 and 3.2 mg/kg/day, treatment for 12 days): reversed clinical arthritic symptoms
arthritic clinical scores ([6]; FIG. 4): reversal of arthritic clinical scores
inflammatory synovitis, pannus formation, synovial fluid cytokines, cartilage damage and bone erosion [6]: dose-dependently inhibited
clinical arthritis ([7]; 0.8, 1.6 and 3.2 mg/kg/day, day 0 to day 14): completely prevented and suppressed clinical arthritis
dose that completely suppressed the development of arthritis [7]: 0.8 mg/kg/day

EC50 [4]: 20 to 100 nM
bioavailability (in vivo; plasma, oral): 22.8%
EC50 (CD20+ B cells [5]): 2 nM
Structure (SMILES): C=CC(=O)N1CCC[C@@H](n2nc(-c3ccc(Oc4ccccc4)cc3)c3c(N)ncnc32)C1 [Compound 2, reference compound]
B cell viability (CD20+ B cells [1]): did not decrease
T cell viability (CD3+ T cells): did not decrease
release of IL-1β from human monocytes following FcγR stimulation with IgG (human monocytes; listed as (R)-1-(3-(4-amino-3-(4-phenoxyphenyl)-1H-pyrazolo[3,4-d]pyrimidin-1-yl)piperidin)): suppressed the release of IL-1b; also recorded: monocyte release inhibition of IL-1β
inflammatory synovitis, pannus formation, synovial fluid cytokines, cartilage damage and bone erosion [6]: dose-dependently inhibited
dose that completely suppressed the development of arthritis [7]: 6.25 mg/kg/day

Structure (SMILES): C[C@@H]1C[C@H]2[C@@H]3CCC4=CC(=O)C=C[C@]4(C)[C@@]3(F)[C@@H](O)C[C@]2(C)[C@@]1(O)C(=O)CO [dexamethasone, reference compound]
average clinical scores ([7]; 0.2 mg/kg, day 14): 1

Structure (SMILES): CN(Cc1cnc2nc(N)nc(N)c2n1)c1ccc(C(=O)N[C@@H](CCC(=O)O)C(=O)O)cc1 [methotrexate, reference compound]
clinical arthritis, disease course ([6]; 1.5 mg/kg/day): stabilized disease without further progression of arthritic swelling
